In patent US10542745B2, “Portable device for ex vivo stimulation of whole blood” (Hitachi Chemical Co., Ltd., priority 2010, dated 2020):

Experiments:
Type in all cases: cell-based
blood [1] = experiment: Ex vivo stimulation of blood in strip wells, then 4° C. storage; ACTB, p21 and PUMA mRNA quantified; conditions: for levels of both p21 and PUMA after 3 days of post-stimulation storage: stored at 4° C. for 3 days after stimulation, higher Ct values
Protocol: (§1) Briefly, 96-well filterplates were assembled with leukocyte reduction membranes (Leukosorb; Pall) and placed over oligo(dT)-immobilized collection plates. 150 μL of 5 mmol/L Tris (pH 7.4) was applied to wet the filter membranes. After centrifugation at 120 g for 1 min at 4° C. to remove the Tris solution from the membranes, 50 μL of the stimulated whole blood samples was applied to each well and immediately centrifuged at 120 g for 2 min at 4° C. The wells were then washed once with 300 μL of phosphate-buffered saline. After centrifugation at 2000 g for 5 min at 4° C. to remove the saline solution, 60 μL of stock lysis buffer [5 g/L N-lauroylsarcosine, 4× standard saline citrate, 10 mmol/L Tris-HCl (pH 7.4), 1 mmol/L EDTA, 1 mL/L IGEPAL CA-630 (substitute of NP-40), 1.79 mol/L guanidine thiocyanate (all from Sigma)], supplemented with 10 mL/L 2-mercaptoethanol (Bio-Rad), 0.5 g/L proteinase K (Pierce), 0.1 g/L salmon sperm DNA (5 Prime Eppendorf/Brinkman), 0.1 g/L Escherichia coli tRNA (Sigma), 5 nmol/L each of the specific reverse primers, and 10^10 molecules/L of synthetic RNA34 (as external control), was added to each well of the filterplates. The plates were then incubated at 37° C. for 10 min, placed over oligo(dT)-immobilized collection microplates (GenePlate; RNAture), and centrifuged at 2000 g for 5 min at 4° C. After overnight storage at 4° C., the microplates were washed 3 times with 100 μL of plain lysis buffer and then 3 times with 150 μL of wash buffer [0.5 mol/L NaCl, 10 mmol/L Tris (pH 7.4) 1 mmol/L EDTA] at 4° C.
cDNA was synthesized directly in each well by addition of 30 μL of buffer containing 1× reverse transcription buffer [50 mM KCl, 10 mM Tris-HCl (pH 8.3), 5.5 mM MgCl2, 1 nL/μL Tween 20], 1.25 mM each deoxynucleoside triphosphate, 4 units of rRNasin, and 80 U of MMLV reverse transcriptase (Promega; without primers) and incubation at 37° C. for 2 h. From each 30-μL reaction, 4 μL of cDNA was transferred directly to 384-well PCR plates, and 5 μL of TaqMan universal master mixture (Applied Biosystems) and 1 μL of 5 μM each of the forward and reverse primers for each mRNA or beta-actin were added. PCR was carried out in a PRISM 7900HT (Applied Biosystems), with 1 cycle of 95° C. for 10 min followed by 45 cycles of 95° C. for 30 s, 55° C. for 30 s, and 60° C. for 1 min. Each gene was amplified in separate wells. The cycle threshold (Ct), i.e., the cycle at which certain amounts of PCR products (based on fluorescence) were generated, was determined with analytical software (SDS; Applied Biosystems). The ΔCt were determined by subtracting each Ct of PHA-treated sample from each Ct of PBS-treated control sample, and the fold increase was calculated by 2^-ΔCt.
In order to evaluate the stability of samples after stimulation, blood was stimulated with DNR (10 μM in final concentration), AraC (100 μM in final concentration), or PBS in strip wells for 4 hours at 37° C., and then stored at 4° C. for 0-3 days. After the 4° C. incubation, the samples were stored in a −80° C. freezer until analysis. These experimental conditions are designed to represent the possible conditions a sample would be exposed to during transport in the portable incubation devices described herein. Three mRNAs (ACTB, p21, and PUMA) were quantified as described above.

blood [2] = experiment: IFNa2b stimulation of blood: vacuum tube vs multi-well strip, immediate vs delayed
Protocol: as §1, with “After overnight storage at 4° C., the microplates were washed 3 times with 100 μL of plain lysis buffer and then 3 times with 150 μL of wash buffer [0.5 mol/L NaCl, 10 mmol/L Tris (pH 7.4) 1 mmol/L EDTA] at 4° C.” left out
cDNA was synthesized directly in each well by addition of 30 μL of buffer containing 1× reverse transcription buffer [50 mM KCl, 10 mM Tris-HCl (pH 8.3), 5.5 mM MgCl2, 1 nL/μL Tween 20], 1.25 mM each deoxynucleoside triphosphate, 4 units of rRNasin, and 80 U of MMLV reverse transcriptase (Promega; without primers) and incubation at 37° C. for 2 h. […] The cycle threshold (Ct), i.e., the cycle at which certain amounts of PCR products (based on fluorescence) were generated, was determined with analytical software (SDS; Applied Biosystems). The ΔCt were determined by subtracting each Ct of PHA-treated sample from each Ct of PBS-treated control sample, and the fold increase was calculated by 2^-ΔCt. […]

blood [3] = experiment: Induction of IL2 or CXCL9 after incubation in the portable device vs controlled incubators; conditions: FIGS. 13A and 13B
Protocol: FIGS. 13A and 13B depict a comparison of the level of induction of 1L2 or CXCL9 when stimulated by PHA or IFN alpha and then incubated in the portable device disclosed herein or in controlled incubators (at a variety of temperatures). […] This again represents the degree of flexibility in temperatures and times that can be used (as disclosed above) to perform ex vivo stimulation of blood samples.

blood [4] = experiment: Time course of mRNA induction in blood at two incubation temperatures (ACTB, IL2, CXCL9); conditions: strip wells, 42° C. vs 37° C., 0-9 hours; FIGS. 12C and 12F
Protocol: Briefly, 96-well filterplates were assembled with leukocyte reduction membranes (Leukosorb; Pall) and placed over oligo(dT)-immobilized collection plates. 150 μL of 5 mmol/L Tris (pH 7.4) was applied to wet the filter membranes. After centrifugation at 120 g for 1 min at 4° C. to remove the Tris solution from the membranes, 50 μL of the stimulated whole blood samples was applied to each well and immediately centrifuged at 120 g for 2 min at 4° C. The wells were then washed once with 300 μL of phosphate-buffered saline. […]
(§2) cDNA was synthesized directly in each well by addition of 30 μL of buffer containing 1× reverse transcription buffer [50 mM KCl, 10 mM Tris-HCl (pH 8.3), 5.5 mM MgCl2, 1 nL/μL Tween 20], 1.25 mM each deoxynucleoside triphosphate, 4 units of rRNasin, and 80 U of MMLV reverse transcriptase (Promega; without primers) and incubation at 37° C. for 2 h. […] The cycle threshold (Ct), i.e., the cycle at which certain amounts of PCR products (based on fluorescence) were generated, was determined with analytical software (SDS; Applied Biosystems). The ΔCt were determined by subtracting each Ct of PHA-treated sample from each Ct of PBS-treated control sample, and the fold increase was calculated by 2^-ΔCt.
The time course of induction was also evaluated for two different incubation temperatures. […] ACTB, IL2, andCXCL9 mRNA were quantified.

blood [5] = experiment: PHA stimulation of blood: PHA-containing collection tubes vs multi-well strip; conditions: 37° C. for 4 hours; FIGS. 9A-9D
Protocol: Blood collection tubes were manufactured as described above. Three tubes were stored at 4° C. (tubes PHA 4C #1, #2, and #3 in FIG. 9) or room temperature (PHA RT in FIG. 9) for 20 days. Blood was then drawn into 6 tubes: a control heparin tube, a plain heparin tube, and 4 PHA-containing tubes. The blood from the control heparin tube was stimulated (by PBS or PHA) in micro-plate tube strips (3 wells each, 60 μL blood/well). The remaining 5 tubes were incubated at 37° C. for 4 hours. Various mRNA were quantified by using SYBR green real time PCR as described previously (Mitsuhashi M et al. Clin. Chem. 52:634-642, 2006). […]
as §2

[6] = DNR 10 μM or AraC 100 μM final, 4 hours at 37° C., vs PBS
[7] = DNR 10 μM or AraC 100 μM final, 4 hours at 37° C., vs PBS, FIGS. 11A-11B
[8] = blood stored at 4° C. for 6 hours before ex vivo stimulation

Nc1ccn([C@@H]2O[C@H](CO)[C@@H](O)[C@@H]2O)c(=O)n1 [AraC, cytarabine]
PUMA expression induction (blood [1]; [6]): induced
beta actin mRNA induction (blood [1]; [7]): not induced
levels of both p21 and PUMA after 3 days of post-stimulation storage (blood [1]): appear to have decreased

COc1cccc2c1C(=O)c1c(O)c3c(c(O)c1C2=O)C[C@@](O)(C(C)=O)C[C@@H]3O[C@H]1C[C@H](N)[C@H](O)[C@H](C)O1 [DNR, daunorubicin]
PUMA expression induction (blood [1]; [6]): induced
beta actin mRNA induction (blood [1]; [7]): not induced
p21 mRNA induction (blood [1]; [7]): significant induction
levels of both p21 and PUMA after 3 days of post-stimulation storage (blood [1]): appear to have decreased

interferon alpha 2b [IFNa2b]
performance of IFNa2b tube vs conventional IFNa2b stimulation in strip wells (blood [2]; 2 hours at 37° C. immediately after blood draw, FIGS. 10A-10C): identical
CXCL10 induction (blood [2]; [8]): less induction
GIP2 induction (blood [2]; [8]): less induction
CXCL9 induction, portable device vs controlled incubators (blood [3]): not significantly different
CXCL-9 induction (blood [4]): induced to a similar extent

phytohemaglutinin [PHA]
IL2 induction, portable device vs controlled incubators (blood [3]): not significantly different
mRNA (beta-actin, interferon gamma, interleukin 2, GM-CSF): stimulation in multi-well strip vs PHA-containing blood collection tubes (blood [5]): no differences were detected
